Series [1] can be described thus: Compartmentalisation of small molecules in water-in-fluorocarbon emulsions (epifluorescence microscopy). The format is physicochemical. The conditions noted are these: water-in-perfluorooctyl bromide emulsions mixed by vortexing; 24 hours after mixing. On the procedure:
FIG. 3. Compartmentalisation of small molecules in water-in-fluorocarbon emulsions. Water-in-perfluorooctyl bromide emulsions were made containing texas red (1 mM) and calcein (1 mM) in the aqueous phase by homogenisation as described in example 9. The two emulsions were mixed by vortexing and imaged by epifluorescence microscopy after 24 hours. No exchange of texas-red (red fluorescence) and calcein (green fluorescence) between microdroplets could be observed.
Water-in-fluorocarbon emulsions containing 95% (v/v) perfluorooctyl bromide, 5% (v/v) phosphate buffered saline containing the molecule of interest in solution, and 2% (w/v) C8F17C11H22OP(O)[N(CH2CH2)2O]2 (F8H11DMP) as surfactant were formed essentially as (Sadtler et al., 1996) by extrusion (15 times) through 14 μm filters (Osmonics) or by homogenising for 5 min at 25,000 r.p.m. using an Ultra-Turrax T8 Homogenizer (IKA) with a 5 mm dispersing tool. Emulsions were made containing a series of small fluorescent molecules dissolved in the aqueous phase at concentrations from […] to 2 mM. These molecules, including calcein, texas red, fluorescein, coumarin 102, 7-hydroxycoumarin-3-carboxylic acid and 7-diethylamino-4-methyl coumarin (coumarin 1), had molecular weights from 203 to 625 Da and Log P values—calculated using SRC's Log Kow/KowWin Program (Meylan and Howard, 1995)—ranging from −0.49 to 4.09. […]

The target of series [2] is T1, human recombinant PTPIB, residues 1-322 (Homo sapiens, UniProt P18031).
T1 construct: human recombinant PTPIB, residues 1-322; purchased Biomol Research Laboratories, Inc
T1 sequence (P18031 1-322): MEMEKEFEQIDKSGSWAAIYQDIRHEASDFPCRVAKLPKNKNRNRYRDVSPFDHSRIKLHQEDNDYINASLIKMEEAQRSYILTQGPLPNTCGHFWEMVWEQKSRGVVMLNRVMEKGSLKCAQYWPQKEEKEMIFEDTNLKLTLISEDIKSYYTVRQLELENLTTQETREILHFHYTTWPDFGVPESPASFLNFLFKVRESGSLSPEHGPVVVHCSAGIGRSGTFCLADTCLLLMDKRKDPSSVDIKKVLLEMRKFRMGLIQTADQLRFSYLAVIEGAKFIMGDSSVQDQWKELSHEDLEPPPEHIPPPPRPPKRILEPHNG
In words: Screening for PTPIB inhibitors in water-in-oil emulsion microcapsules with fluorogenic substrate DiFMUP, multi-colour flow cytometry. The class given is biochemical. Particulars: 100 μM compound, 37° C. for 30 min. On the procedure:
The syringes are fitted into the openings on both sides of the filter holder of the extruder. The compound mix is forced through the filter holder into the alternate syringe containing the decane/surfactant mix and directly forced back into the original syringe to complete one round of extrusion. In total, 7.5 rounds of extrusion are completed. The filled syringe is removed from the extruder and emptied into a 1.7 ml Axygen tube (# MCT-175-C, Axygen Scientific, Inc., Union City, Calif., USA).
The two emulsions are mixed by vortexing in ratios varying from 1:1000 to 1:1 (compound 2 emulsion: hydrocinnamic acid emulsion) and incubated at 37° C. for 30 min. Inhibitors reduce the amount of non-fluorescent substrate (DiFMUP) converted to the dephosphorylated product (DiFMU; excitation/emmission maxima 358/452 nm; blue fluorescence). […]
The double emulsions are then analysed by multi-colour flow cytometery using a MoFlo (Cytomation) flow cytometer. […]
50 μl of each of the compound mixtures is added sequentially to a solution of 1% (w/v) Span 60 and 1% (w/v) cholesterol in decane, made and held at 37° C. as example 1, whilst homogenising at 25,000 r.p.m. using an Ultra-Turrax T8 Homogenizer (IKA) with a 5 mm dispersing tool. […] Inhibitors reduce the amount of non-fluorescent substrate (DiFMUP) converted to the dephosphorylated product (DiFMU; excitation/emmission maxima 358/452 nm; blue fluorescence). […]
In general terms: Flow cytometry measures light scatter and fluorescence of single cells or particles in a stream.

Series [3] addresses T1, human recombinant PTPIB, residues 1-322. In words: Screening for PTPIB inhibitors using microcapsules in microfluidic systems (DiFMUP, epifluorescence microscope). The format is biochemical. Particulars: Example 5; 100 μM compound solution; PTPIB 50 mU/ml; fused microcapsules run up to 2 min. As for the experimental part:
Microchannels are fabricated with rectangular cross-sections using rapid prototyping in poly(dimethylsiloxane) (PDMS) (McDonald and Whitesides, 2002) and rendered hydrophobic as (Song and Ismagilov, 2003). Syringe pumps were used to drive flows (Harvard Apparatus PHD 2000 Infusion pumps). For aqueous solutions, 50 μl Hamilton Gastight syringes (1700 series, TLL) with removeable needles of 27-gaugeare used with 30-gauge Teflon tubing (Weico Wire and Cable). For the carrier fluid, 1 ml Hamilton Gastight syringes (1700 series, TLL) are used with 30-gauge Teflon needles with one hub from Hamilton (Song and Ismagilov, 2003). The carrier fluid is 9% (v/v) C6F11C2H4OH in perfluorodecaline (PFD) (Song et al., 2003). All water-soluble reagents were dissolved in (25 mM HEPES, pH 7.4, 125 mM NaCl, 1 mM EDTA), a buffer compatible with PTPIB activity.
These three steams are continuously injected into a flow of water immiscible fluorocarbon carrier fluid (9% (v/v) C6FπC2H OH in PFD). Inlet channels for the aqueous solutions are […] wide and channel for PFD is 28 μm wide. […]
The channel immediately downstream of the point of droplet formation is winding with a peak to peak distance of 50 μm for a distance of 1 mm. […] Fluorescence of the microcapsules due to production of DiFMU (excitation/emmission maxima 358/452 nm; blue fluorescence) is measured using an epifluorescence microscope.

A further series concerns the target T2, PTPIB (Homo sapiens, UniProt P18031).
T2 sequence (P18031 1-435): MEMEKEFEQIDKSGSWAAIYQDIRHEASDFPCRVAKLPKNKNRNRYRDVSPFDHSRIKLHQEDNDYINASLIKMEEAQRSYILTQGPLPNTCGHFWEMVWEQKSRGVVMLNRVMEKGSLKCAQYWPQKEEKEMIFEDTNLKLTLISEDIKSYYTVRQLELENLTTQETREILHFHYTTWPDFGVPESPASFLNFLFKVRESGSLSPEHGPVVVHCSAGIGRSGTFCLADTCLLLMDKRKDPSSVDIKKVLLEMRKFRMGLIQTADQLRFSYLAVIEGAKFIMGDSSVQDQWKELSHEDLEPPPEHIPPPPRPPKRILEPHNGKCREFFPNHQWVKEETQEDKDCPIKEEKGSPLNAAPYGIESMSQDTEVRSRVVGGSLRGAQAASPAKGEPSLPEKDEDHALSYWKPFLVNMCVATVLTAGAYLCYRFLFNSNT
Particulars: Johnson et al., 2002; cited from earlier work.

Here are results for three compounds from patent US10151698B2, “Selection by compartmentalized screening” (Medical Research Council, priority 2003, dated 2018).

As for `O=C(O)CN(CC(=O)O)Cc1cc2c(cc1O)Oc1cc(O)c(CN(CC(=O)O)CC(=O)O)cc1C21OC(=O)c2ccccc21` [calcein], the exchange between microdroplets/compartments result in series [1] is reported as “No exchange”.

Regarding texas red, the exchange between microdroplets/compartments entry in series [1] is recorded as “No exchange”.

For the compound `O=C(O)CCc1ccccc1` [hydrocinnamic acid], the “blue fluorescence of microcapsules (DiFMU from dephosphorylation of DiFMUP by PTPIB)” value in series [2] (Example 1, two emulsions mixed 1:1000 to 1:1) was “also show blue fluorescence”; in series [2] (Example 2, mixtures added sequentially to one oil phase), “also show blue fluorescence”. Also, in series [3], the “fluorescence of the microcapsules due to production of DiFMU” value was “exhibiting blue fluorescence”. In addition, the “PTPIB inhibitor or not” value on PTPIB was “not a PTPIB inhibitor”.
